Measured values: ChEMBL document CHEMBL1135234, “2-Arylindoles as gonadotropin releasing hormone (GnRH) antagonists: optimization of the tryptamine side chain” (Bioorg Med Chem Lett, 2002)
Where “and” joins values, the source holds several entries; their conditions need not be identical. Equal entries are not always repeated.

Tests used:
[1] = target: T1, Gonadotropin-releasing hormone receptor (Homo sapiens, UniProt P30968); assay: Inhibition of gonadotropin-releasing hormone receptor-stimulated [3H]inositol phosphate hydrolysis; type: functional
T1 sequence (P30968 whole entry): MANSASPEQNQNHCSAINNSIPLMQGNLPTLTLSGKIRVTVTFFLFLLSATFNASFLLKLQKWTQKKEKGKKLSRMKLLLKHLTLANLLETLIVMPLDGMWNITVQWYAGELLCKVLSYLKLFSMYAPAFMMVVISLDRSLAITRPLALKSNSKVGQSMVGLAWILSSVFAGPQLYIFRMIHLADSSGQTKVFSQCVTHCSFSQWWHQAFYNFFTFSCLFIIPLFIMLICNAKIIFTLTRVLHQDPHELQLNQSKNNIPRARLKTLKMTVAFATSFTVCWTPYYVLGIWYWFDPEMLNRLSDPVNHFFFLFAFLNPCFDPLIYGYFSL

[2] = target: T1, Gonadotropin-releasing hormone receptor; assay: Inhibition of [125I]buserelin binding to human pituitary gonadotropin-releasing hormone receptor
[3] = target: T2, Cytochrome P450 3A4 (Homo sapiens, UniProt P08684); assay: Inhibition of cytochrome P450 3A4 enzyme
[4] = (§1) Oral bioavailability in dog; type: ADME, organism-based, Canis lupus familiaris; settings: in vivo
[5] = target: T2, Cytochrome P450 3A4; assay: Inhibition of cytochrome P450 3A4 enzyme; Range 1-2 uM; type: ADME
[6] = Half life in dog was determined; type: ADME, organism-based, Canis lupus familiaris; settings: in vivo
[7] = Plasma clearance in dog was determined; type: ADME, organism-based, Canis lupus familiaris; settings: read-out: Clp
[8] = system: Canis familiaris; assay: as §1; type: ADME, organism-based, Canis lupus familiaris; settings: in vivo
[9] = system: Canis familiaris; assay: Compound was tested for the oral bioavailability in dog; No availability; type: ADME, organism-based, Canis lupus familiaris; settings: in vivo
[10] = target: T1, Gonadotropin-releasing hormone receptor; assay: Compound was evaluated for the inhibition of Gonadotropin-releasing hormone receptor-stimulated [3H]inositol phosphate hydrolysis using functional assay

T2 sequence (P08684 whole entry): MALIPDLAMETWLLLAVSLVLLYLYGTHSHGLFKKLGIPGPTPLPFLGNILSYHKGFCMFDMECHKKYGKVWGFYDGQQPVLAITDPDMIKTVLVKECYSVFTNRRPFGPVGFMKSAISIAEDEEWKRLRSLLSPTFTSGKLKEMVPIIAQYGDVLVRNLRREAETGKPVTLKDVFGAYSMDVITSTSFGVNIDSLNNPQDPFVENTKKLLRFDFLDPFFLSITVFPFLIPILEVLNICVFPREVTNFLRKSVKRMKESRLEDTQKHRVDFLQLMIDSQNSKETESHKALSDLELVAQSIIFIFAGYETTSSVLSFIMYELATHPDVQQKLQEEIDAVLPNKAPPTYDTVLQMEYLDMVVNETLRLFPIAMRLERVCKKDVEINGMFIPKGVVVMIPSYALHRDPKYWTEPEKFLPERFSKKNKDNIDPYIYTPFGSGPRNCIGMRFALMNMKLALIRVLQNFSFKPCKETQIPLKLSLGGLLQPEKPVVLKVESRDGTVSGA

SMILES | IC50 [1] [nM] | IC50 [2] [nM] | also measured
Cc1cc(C)cc(-c2[nH]c3ccc(C(C)(C)C(=O)N4C5CCC4CC5)cc3c2[C@H](C)CNCCc2c[nH]c3ncnc-3c2)c1 | 2.5 | 0.4 | 
Cc1cc(C)cc(-c2[nH]c3ccc(C(C)(C)C(=O)N4C5CCC4CC5)cc3c2[C@H](C)CNCCCc2cccc3cnccc23)c1 | 5 | 0.9 | 
Cc1cc(C)cc(-c2[nH]c3ccc(C(C)(C)C(=O)N4C5CCC4CC5)cc3c2[C@H](C)CNCc2cccc3ncccc23)c1 (stereo in doubt; 27a) | 420 | 27.5 | 
Cc1cc(C)cc(-c2[nH]c3ccc(C(C)(C)C(=O)N4C5CCC4CC5)cc3c2[C@H](C)CNCCCc2cnc3nccnc3c2)c1 | 10.9 | 0.8 | 
Cc1cc(C)cc(-c2[nH]c3ccc(C(C)(C)C(=O)N4CC5CCC4CC5)cc3c2[C@H](C)CNCCc2c[nH]c3ncnc-3c2)c1 | 4.5 | 0.3 | bioavailability [4]: 16%; IC50 [3]: 4000 nM
Cc1cc(C)cc(-c2[nH]c3ccc(C(C)(C)C(=O)N4C5CCC4CC5)cc3c2[C@H](C)CNCCCCc2cccc3ncccc23)c1 | 46.4 | 1.9 | 
Cc1cc(C)cc(-c2[nH]c3ccc(C(C)(C)C(=O)N4C5CCC4CC5)cc3c2[C@H](C)CNCCCc2ccc3ncccc3c2)c1 | 17.8 | 3 | 
Cc1cc(C)cc(-c2[nH]c3ccc(C(C)(C)C(=O)N4C5CCC4CC5)cc3c2[C@H](C)CNCCCCc2cccc3cnccc23)c1 | 6.8 | 1.5 | half-life [6]: 1 h; bioavailability [4]: 4%; clearance [7]: 49.2 mL/min/kg
Cc1cc(C)cc(-c2[nH]c3ccc(C(C)(C)C(=O)N4C5CCC4CC5)cc3c2[C@H](C)CNCCCc2ccnc3nc(C)ccc23)c1 | 16.2 | 1.1 | 
Cc1cc(C)cc(-c2[nH]c3ccc(C(C)(C)C(=O)N4C5CCC4CC5)cc3c2[C@H](C)CNCCCCc2ccnc3nc(C)ccc23)c1 | 8.4 | 0.6 | 
Cc1cc(C)cc(-c2[nH]c3ccc(C(C)(C)C(=O)N4CC5CCC4CC5)cc3c2[C@H](C)CNCCc2ccc3[nH]c(CO)nc3c2)c1 | 5 | 0.7 | 
Cc1cc(C)cc(-c2[nH]c3ccc(C(C)(C)C(=O)N4C5CCC4CC5)cc3c2[C@H](C)CNCCc2cccc3cnccc23)c1 | 34.7 | 0.6 | half-life [6]: 1.9 h; bioavailability [4]: 10%; clearance [7]: 5.8 mL/min/kg; IC50 [5]: 1000 nM
Cc1cc(C)cc(-c2[nH]c3ccc(C(C)(C)C(=O)N4CC5CCC4CC5)cc3c2[C@H](C)CNCCc2ccc3ncoc3c2)c1 | 3.9 | 0.6 | 
Cc1cc(C)cc(-c2[nH]c3ccc(C(C)(C)C(=O)N4C5CCC4CC5)cc3c2[C@H](C)CNCCCCc2ccncc2)c1 |  |  | half-life [6]: 9.5 h; F [8]: 23% and 11%; clearance [7]: 26.5 mL/min/kg
Cc1cc(C)cc(-c2[nH]c3ccc(C(C)(C)C(=O)N4CC5CCC4CC5)cc3c2[C@H](C)CNCCc2ccc3[nH]ncc3c2)c1 | 1.5 | 1.1 | 
Cc1cc(C)cc(-c2[nH]c3ccc(C(C)(C)C(=O)N4C5CCC4CC5)cc3c2[C@H](C)CNCCc2ccc3ocnc3c2)c1 | 9 | 0.3 | 
Cc1cc(C)cc(-c2[nH]c3ccc(C(C)(C)C(=O)N4CC5CCC4CC5)cc3c2[C@H](C)CNCCc2ccc3nc(C(=O)O)[nH]c3c2)c1 | 6.5 | 0.4 | F [9]: Not Active; clearance [7]: 24.6 mL/min/kg
Cc1cc(C)cc(-c2[nH]c3ccc(C(C)(C)C(=O)N4C5CCC4CC5)cc3c2[C@H](C)CNCc2cccc3ncccc23)c1 (stereo in doubt; 27b) | 315 | 15.3 | 
Cc1cc(C)cc(-c2[nH]c3ccc(C(C)(C)C(=O)N4C5CCC4CC5)cc3c2[C@H](C)CNCCCc2cccc3ncccc23)c1 | 131 | 2.4 | 

Further lines, with some results ahead:

IC50 [1] [nM] | IC50 [2] [nM] | SMILES | also measured
2.8 | 0.6 | Cc1cc(C)cc(-c2[nH]c3ccc(C(C)(C)C(=O)N4CC5CCC4CC5)cc3c2[C@H](C)CNCCc2cnc3nn[nH]c3c2)c1 | 
13 | 0.4 | Cc1cc(C)cc(-c2[nH]c3ccc(C(C)(C)C(=O)N4C5CCC4CC5)cc3c2[C@H](C)CNCCc2ccc3[nH]c(C)nc3c2)c1 | IC50 [3]: 5000 nM
4.5 | 0.3 | Cc1cc(C)cc(-c2[nH]c3ccc(C(C)(C)C(=O)N4CC5CCC4CC5)cc3c2[C@H](C)CNCCc2ccc3nc[nH]c3c2)c1 | bioavailability [4]: 63%; IC50 [3]: 100 nM
7.6 | 0.3 | COC(=O)c1nc2ccc(CCNC[C@@H](C)c3c(-c4cc(C)cc(C)c4)[nH]c4ccc(C(C)(C)C(=O)N5CC6CCC5CC6)cc34)cc2[nH]1 | 
2 | 0.4 | Cc1cc(C)cc(-c2[nH]c3ccc(C(C)(C)C(=O)N4C5CCC4CC5)cc3c2[C@H](C)CNCCc2ccc3ncoc3c2)c1 | IC50 [5]: 1000 nM
2.5 | 0.3 | Cc1cc(C)cc(-c2[nH]c3ccc(C(C)(C)C(=O)N4CC5CCC4CC5)cc3c2[C@H](C)CNCCc2ccc3nn[nH]c3c2)c1 | half-life [6]: 7.2 h; bioavailability [4]: 20%; clearance [7]: 5 mL/min/kg
7.9 | 0.4 | Cc1cc(C)cc(-c2[nH]c3ccc(C(C)(C)C(=O)N4C5CCC4CC5)cc3c2[C@H](C)CNCCCCc2cnc3nccnc3c2)c1 | 
5.8 | 3.6 | Cc1cc(C)cc(-c2[nH]c3ccc(C(C)(C)C(=O)N4C5CCC4CC5)cc3c2[C@H](C)CNCCCCc2ccc3cnccc3c2)c1 | 
4.6 | 0.7 | Cc1cc(C)cc(-c2[nH]c3ccc(C(C)(C)C(=O)N4C5CCC4CC5)cc3c2[C@H](C)CNCCCc2ccc3cnccc3c2)c1 | 
43.9 | 16.5 | Cc1cc(C)cc(-c2[nH]c3ccc(C(C)(C)C(=O)N4CC5CCC4CC5)cc3c2[C@H](C)CNCc2ccc3nc[nH]c3c2)c1 | 
27.9 | 0.7 | Cc1cc(C)cc(-c2[nH]c3ccc(C(C)(C)C(=O)N4CC5CCC4CC5)cc3c2[C@H](C)CNCCc2ccc3[nH]c(=O)[nH]c3c2F)c1 | 
101 | 0.9 | Cc1cc(C)cc(-c2[nH]c3ccc(C(C)(C)C(=O)N4CC5CCC4CC5)cc3c2[C@H](C)CNCCc2ccc3[nH]c(C(F)(F)F)nc3c2)c1 | IC50 [3]: > 10000 nM
7.5 | 2.1 | Cc1cc(C)cc(-c2[nH]c3ccc(C(C)(C)C(=O)N4C5CCC4CC5)cc3c2[C@H](C)CNCCCc2cncc3ccccc23)c1 | 
2.6 | 0.4 | Cc1cc(C)cc(-c2[nH]c3ccc(C(C)(C)C(=O)N4C5CCC4CC5)cc3c2[C@H](C)CNCCc2ccc3nc[nH]c3c2)c1 | 
11.4 | 0.5 | Cc1cc(C)cc(-c2[nH]c3ccc(C(C)(C)C(=O)N4CC5CCC4CC5)cc3c2[C@H](C)CNCCc2ccc3nsnc3c2)c1 | IC50 [5]: 1000 nM
4.6 | 0.4 | Cc1cc(C)cc(-c2[nH]c3ccc(C(C)(C)C(=O)N4C5CCC4CC5)cc3c2[C@H](C)CNCCCCc2cnc3nc[nH]c3c2)c1 | 
2 | 0.6 | Cc1cc(C)cc(-c2[nH]c3ccc(C(C)(C)C(=O)N4C5CCC4CC5)cc3c2[C@H](C)CNCCc2ccc3[nH]nnc3c2)c1 | half-life [6]: 2.7 h; bioavailability [4]: 37%; clearance [7]: 37 mL/min/kg
11.5 | 1.1 | Cc1cc(C)cc(-c2[nH]c3ccc(C(C)(C)C(=O)N4C5CCC4CC5)cc3c2[C@H](C)CNCCCCc2ccc3ncccc3c2)c1 | 
10.2 | 2.1 | Cc1cc(C)cc(-c2[nH]c3ccc(C(C)(C)C(=O)N4C5CCC4CC5)cc3c2[C@H](C)CNCCCCc2cncc3ccccc23)c1 | 
 | 0.6 | Cc1cc(C)cc(-c2[nH]c3ccc(C(C)(C)C(=O)N4CC5CCC4CC5)cc3c2[C@H](C)CNCCc2ccc3[nH]c(=O)[nH]c3c2)c1 | bioavailability [4]: 5%; IC50 [10]: 2 nM
